# Legend:
# Details in all cases: growth mode: biofilm, 24 h; exposure time: 24 h
# [1] = compound: T1, CCC(C)CCCC(=O)N[C@@H](CCN)C(=O)N[C@H](C(=O)N[C@@H](CCN)C(=O)N[C@H]1CCNC(=O)[C@H]([C@@H](C)O)NC(=O)[C@H](CCN)NC(=O)[C@H](CCN)NC(=O)[C@H](CC(C)C)NC(=O)[C@@H](CC(C)C)NC(=O)[C@H](CCN)NC1=O)[C@@H](C)O [colistin]; assay: minimum concentration eradicating biofilm below detection limit (MCK-E); higher = more biofilm tolerance
# Protocol: (§1)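 Clinical P. aeruginosa isolates were grown as static biofilms for 24 h at 37 °C in LB in half-area 96-well plates, then exposed for 24 h to colistin at 1, 4, 16, 64, 256 or […]. Surviving CFU were counted by spotting serial dilutions. MCK is the lowest tested concentration giving the stated log reduction in CFU versus an untreated control; '>1024' means the reduction was not reached at the top dose, and 1 is the lowest dose tested (≤1).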
# [2] = compound: T2, NC[C@H]1O[C@H](O[C@H]2[C@H](O)[C@@H](O[C@H]3O[C@H](CO)[C@@H](O)[C@H](N)[C@H]3O)[C@H](N)C[C@@H]2N)[C@H](N)C[C@@H]1O [tobramycin]; assay: as above
# Protocol: (§2)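 Clinical P. aeruginosa isolates were grown as static biofilms for 24 h at 37 °C in LB in half-area 96-well plates, then exposed for 24 h to tobramycin at 1, 4, 16, 64, 256 or […]. Surviving CFU were counted by spotting serial dilutions. MCK is the lowest tested concentration giving the stated log reduction in CFU versus an untreated control; '>1024' means the reduction was not reached at the top dose, and 1 is the lowest dose tested (≤1).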
# [3] = compound: T1, colistin; assay: minimum concentration of killing, 1-log CFU reduction of biofilm (MCK90); higher = more biofilm tolerance
# Protocol: as §1
# [4] = compound: T1, colistin; assay: minimum concentration of killing, 2-log CFU reduction of biofilm (MCK99); higher = more biofilm tolerance
# Protocol: as §1
# [5] = compound: T2, tobramycin; assay: minimum concentration of killing, 1-log CFU reduction of biofilm (MCK90); higher = more biofilm tolerance
# Protocol: as §2
# [6] = compound: T2, tobramycin; assay: minimum concentration of killing, 2-log CFU reduction of biofilm (MCK99); higher = more biofilm tolerance
# Protocol: as §2
# [7] = compound: T1, colistin; assay: minimum concentration of killing, 4-log CFU reduction of biofilm (MCK99.99); higher = more biofilm tolerance
# Protocol: as §1
# [8] = compound: T2, tobramycin; assay: as above
# Protocol: as §2
Test System,minimum concentration eradicating biofilm below detection limit [1],minimum concentration eradicating biofilm below detection limit [2],minimum concentration of killing [3],minimum concentration of killing [4],minimum concentration of killing [5],minimum concentration of killing [6],minimum concentration of killing [7],minimum concentration of killing [8]
Pseudomonas aeruginosa clinical isolate ESP020,256 µg/mL,256 µg/mL,64 µg/mL,256 µg/mL,4 µg/mL,256 µg/mL,256 µg/mL,256 µg/mL
Pseudomonas aeruginosa clinical isolate ESP021,256 µg/mL,64 µg/mL,16 µg/mL,64 µg/mL,4 µg/mL,4 µg/mL,256 µg/mL,64 µg/mL
Pseudomonas aeruginosa clinical isolate ESP022,256 µg/mL,256 µg/mL,256 µg/mL,256 µg/mL,16 µg/mL,16 µg/mL,256 µg/mL,16 µg/mL
Pseudomonas aeruginosa clinical isolate ESP023,64 µg/mL,16 µg/mL,64 µg/mL,64 µg/mL,≤ 1 µg/mL,16 µg/mL,64 µg/mL,16 µg/mL
Pseudomonas aeruginosa clinical isolate ESP024,256 µg/mL,64 µg/mL,4 µg/mL,4 µg/mL,≤ 1 µg/mL,4 µg/mL,256 µg/mL,16 µg/mL
Pseudomonas aeruginosa clinical isolate ESP025,64 µg/mL,> 1020 µg/mL,16 µg/mL,16 µg/mL,1020 µg/mL,> 1020 µg/mL,16 µg/mL,> 1020 µg/mL
Pseudomonas aeruginosa clinical isolate ESP027,64 µg/mL,1020 µg/mL,16 µg/mL,64 µg/mL,≤ 1 µg/mL,4 µg/mL,64 µg/mL,1020 µg/mL
Pseudomonas aeruginosa clinical isolate ESP028,256 µg/mL,1020 µg/mL,256 µg/mL,256 µg/mL,16 µg/mL,256 µg/mL,256 µg/mL,1020 µg/mL
Pseudomonas aeruginosa clinical isolate ESP029,256 µg/mL,256 µg/mL,256 µg/mL,256 µg/mL,4 µg/mL,4 µg/mL,256 µg/mL,256 µg/mL
Pseudomonas aeruginosa clinical isolate ESP031,256 µg/mL,1020 µg/mL,256 µg/mL,256 µg/mL,1020 µg/mL,1020 µg/mL,256 µg/mL,1020 µg/mL
Pseudomonas aeruginosa clinical isolate ESP032,256 µg/mL,> 1020 µg/mL,256 µg/mL,256 µg/mL,256 µg/mL,256 µg/mL,256 µg/mL,1020 µg/mL
Pseudomonas aeruginosa clinical isolate ESP033,256 µg/mL,256 µg/mL,256 µg/mL,256 µg/mL,16 µg/mL,64 µg/mL,256 µg/mL,64 µg/mL
Pseudomonas aeruginosa clinical isolate ESP034,256 µg/mL,1020 µg/mL,256 µg/mL,256 µg/mL,4 µg/mL,16 µg/mL,256 µg/mL,1020 µg/mL
Pseudomonas aeruginosa clinical isolate ESP035,256 µg/mL,1020 µg/mL,64 µg/mL,256 µg/mL,256 µg/mL,256 µg/mL,256 µg/mL,256 µg/mL

# From the supplement of paper PMC8920030
